Patent US20060079453A1, “Hla binding peptides and their uses” (priority 2002, published 2006)
No end group written: not given here.

What follows are sequences tested against HLA-A*6801 (Homo sapiens, UniProt P04439, A269V/D185E/E176V/E277Q/E87N/F33Y/G231S/I121M/I166T/I218V/L180W/L300P/L318F/N151K/P208A/P217A/Q86R/R169H/T345S) (assay: biochemical). Conditions: not given.
Type: binding

Point of comparison: VSIRVGGQTK, IC50 0.29 µM. Against it:
- YSVYGTTLER — 15-fold lower, 0.019 µM
- PVLTSLFNK — 100-fold higher, 29.9 µM
- TFLEKLTNK — 3.2-fold higher, 0.918 µM
- RLLSKISEYR — 14-fold lower, 0.021 µM
- KQRFHNIRGK — 79-fold higher, 22.9 µM
- VTVYYGPGPGK — 9.7-fold lower, 0.03 µM
- GTRQARRNRK — 27-fold higher, 7.79 µM
- VTIKVGGQLK — 2.3-fold lower, 0.127 µM
- KISEYRHYNK — 54-fold higher, 15.6 µM
- KVGPGGYPRRK — 3.2-fold higher, 0.921 µM
- VFADLRIVYK — within 1.5-fold, 0.273 µM
- RVRRRRWRAR — higher, > 36.9 µM
- ALKISQLQK — higher, > 54.8 µM
- NIMGRWTGK — 1.7-fold lower, 0.173 µM
- KVSEFRWYRR — 9.7-fold lower, 0.03 µM
- AVIFTPIYY — 4.7-fold higher, 1.35 µM
- KVGPGGYPRR — 2.5-fold higher, 0.721 µM
- GVDGLIYSK — 18-fold higher, 5.1 µM
- AACWRSRRK — 44-fold higher, 12.9 µM
- VSHAQLPAK — 47-fold higher, 13.5 µM
- LLFYSKVRKYR — 19-fold lower, 0.015 µM
- LTISYGRK — 1.7-fold higher, 0.482 µM
- ALNAAAAAK — 280-fold higher, 80 µM
- YLFNQHIKK — 21-fold lower, 0.014 µM
- VTVRVGGQLK — 2.1-fold lower, 0.141 µM
- FLYLLNKKNK — 1.9-fold lower, 0.155 µM

These sequences were tested against HLA-A*3301 (Homo sapiens, UniProt P04439, A270S/D185E/E176V/E277Q/E87N/F33T/G231S/H175R/I121M/I218V/I322F/K168Q/K210R/L300P/L318F/M331R/P217A/Q86R/Q94H/R138Q/T323A/T345S/T97I/V358M/Y195H) (assay: biochemical). Conditions: not given.
Type: binding

Point of comparison: KVGPGGYPRR, IC50 7.9 µM. Against it:
- YSVYGTTLER — within 1.5-fold, 6.9 µM
- PVLTSLFNK — 2.3-fold higher, 18.3 µM
- TFLEKLTNK — 53-fold lower, 0.148 µM
- RLLSKISEYR — 73-fold lower, 0.108 µM
- KQRFHNIRGK — 4.5-fold higher, 35.2 µM
- VSIRVGGQTK — 4.9-fold higher, 39 µM
- VTVYYGPGPGK — 13-fold higher, 102 µM
- GTRQARRNRK — higher, > 42.3 µM
- VTIKVGGQLK — 6-fold higher, 47.6 µM
- KISEYRHYNK — 3.1-fold higher, 24.8 µM
- KVGPGGYPRRK — not separable, > 5.06 µM
- VFADLRIVYK — 40-fold lower, 0.2 µM
- RVRRRRWRAR — 2.1-fold lower, 3.76 µM
- ALKISQLQK — 3-fold higher, 23.8 µM
- NIMGRWTGK — 92-fold lower, 0.086 µM
- KVSEFRWYRR — 50-fold lower, 0.159 µM
- AVIFTPIYY — within 1.5-fold, 10.1 µM
- GVDGLIYSK — higher, > 29.7 µM
- AACWRSRRK — 5.7-fold higher, 45.3 µM
- VSHAQLPAK — 5.6-fold lower, 1.4 µM
- LLFYSKVRKYR — 720-fold lower, 0.011 µM
- LTISYGRK — 4.8-fold higher, 38.2 µM
- ALNAAAAAK — higher, > 72.5 µM
- YLFNQHIKK — within 1.5-fold, 7.97 µM
- VTVRVGGQLK — higher, > 72.3 µM
- FLYLLNKKNK — 10-fold lower, 0.78 µM

These sequences were tested against HLA-DR DRB1*0701 (DR7) (Homo sapiens, UniProt P01903+P01911, A100R/A102G/A103Q/D57E/D86V/E43K/F76Y/K127E/L162R/M171V/P40G/Q125H/Q99D/R33Q/R42Y/R54Q/S133A/S66F/T210M/V115G/Y107V/Y59L/Y89S) (assay: biochemical). Conditions: read-out: DRB1 *0701.
Type: binding

Point of comparison: KKPLNEILIRCIICQ, IC50 7.97 µM. Against it:
- EFAFKDLFVVYRDS — 2.2-fold lower, 3.69 µM

The sequences below were run against HLA-A*0301 (Homo sapiens, UniProt P04439) (assay: biochemical). Conditions: not given.
Type: binding

Point of comparison: VSHAQLPAK, IC50 0.378 µM. Against it:
- YSVYGTTLER — within 1.5-fold, 0.43 µM
- PVLTSLFNK — 5.2-fold higher, 1.95 µM
- TFLEKLTNK — 18-fold higher, 6.84 µM
- RLLSKISEYR — 73-fold lower, 0.0052 µM
- KQRFHNIRGK — 6.9-fold lower, 0.055 µM
- VSIRVGGQTK — within 1.5-fold, 0.341 µM
- VTVYYGPGPGK — within 1.5-fold, 0.31 µM
- GTRQARRNRK — 3.8-fold lower, 0.1 µM
- VTIKVGGQLK — 2-fold lower, 0.188 µM
- KISEYRHYNK — 13-fold lower, 0.029 µM
- KVGPGGYPRRK — 5.4-fold lower, 0.07 µM
- VFADLRIVYK — 5.5-fold higher, 2.09 µM
- RVRRRRWRAR — 6.5-fold higher, 2.44 µM
- ALKISQLQK — 25-fold lower, 0.015 µM
- NIMGRWTGK — 7.3-fold lower, 0.052 µM
- KVSEFRWYRR — within 1.5-fold, 0.266 µM
- AVIFTPIYY — 15-fold lower, 0.025 µM
- KVGPGGYPRR — 6-fold higher, 2.27 µM
- GVDGLIYSK — 27-fold higher, 10.1 µM
- AACWRSRRK — 5-fold lower, 0.075 µM
- LLFYSKVRKYR — 14-fold lower, 0.028 µM
- LTISYGRK — 2.6-fold higher, 0.988 µM
- ALNAAAAAK — 5.1-fold lower, 0.074 µM
- YLFNQHIKK — 27-fold lower, 0.014 µM
- VTVRVGGQLK — 1.8-fold lower, 0.216 µM
- FLYLLNKKNK — 2.1-fold lower, 0.177 µM

What follows are sequences tested against HLA-A*1101 (Homo sapiens, UniProt P04439, A114D/D185E/E176A/F33Y/L180Q/S129P/T187R) (assay: biochemical). Conditions: not given.
Type: binding

Sequence of HLA-A*1101 (P04439 25-365 limits assumed, stated change not applied): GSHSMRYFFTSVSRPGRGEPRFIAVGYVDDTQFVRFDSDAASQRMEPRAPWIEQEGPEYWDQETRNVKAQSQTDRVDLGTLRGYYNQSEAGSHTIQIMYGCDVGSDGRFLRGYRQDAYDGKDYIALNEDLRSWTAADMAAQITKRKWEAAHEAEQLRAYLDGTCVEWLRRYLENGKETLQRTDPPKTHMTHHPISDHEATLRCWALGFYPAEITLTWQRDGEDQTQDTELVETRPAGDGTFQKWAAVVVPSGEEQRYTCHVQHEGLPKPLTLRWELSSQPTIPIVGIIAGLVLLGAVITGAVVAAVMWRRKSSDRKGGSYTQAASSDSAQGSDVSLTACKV

Point of comparison: RLLSKISEYR, IC50 0.662 µM. Against it:
- YSVYGTTLER — 6.9-fold lower, 0.096 µM
- PVLTSLFNK — 26-fold lower, 0.025 µM
- TFLEKLTNK — within 1.5-fold, 0.815 µM
- KQRFHNIRGK — 2.9-fold higher, 1.95 µM
- VSIRVGGQTK — 32-fold lower, 0.021 µM
- VTVYYGPGPGK — 28-fold lower, 0.024 µM
- GTRQARRNRK — within 1.5-fold, 0.634 µM
- VTIKVGGQLK — 11-fold lower, 0.059 µM
- KISEYRHYNK — 37-fold lower, 0.018 µM
- KVGPGGYPRRK — 7.6-fold lower, 0.087 µM
- VFADLRIVYK — 5.2-fold lower, 0.127 µM
- RVRRRRWRAR — higher, > 16.8 µM
- ALKISQLQK — 6.9-fold lower, 0.096 µM
- NIMGRWTGK — 12-fold lower, 0.054 µM
- KVSEFRWYRR — 41-fold lower, 0.016 µM
- AVIFTPIYY — 70-fold lower, 0.0095 µM
- KVGPGGYPRR — within 1.5-fold, 0.487 µM
- GVDGLIYSK — 14-fold lower, 0.047 µM
- AACWRSRRK — within 1.5-fold, 0.77 µM
- VSHAQLPAK — 70-fold lower, 0.0095 µM
- LLFYSKVRKYR — 7-fold lower, 0.094 µM
- LTISYGRK — within 1.5-fold, 0.708 µM
- ALNAAAAAK — 32-fold lower, 0.021 µM
- YLFNQHIKK — 85-fold lower, 0.0078 µM
- VTVRVGGQLK — 35-fold lower, 0.019 µM
- FLYLLNKKNK — within 1.5-fold, 0.475 µM

What follows are sequences tested against HLA-A*3101 (Homo sapiens, UniProt P04439, A270S/D185E/E176V/E277Q/F33T/G231S/G80R/H175R/I121M/I218V/I322F/K168Q/L300P/L318F/M331R/P217A/Q94H/R138Q/T323A/T345S/T97I/V358M) (assay: biochemical). Conditions: not given.
Type: binding

Point of comparison: YSVYGTTLER, IC50 2.14 µM. Against it:
- PVLTSLFNK — 2.4-fold higher, 5.11 µM
- TFLEKLTNK — 4.7-fold lower, 0.451 µM
- RLLSKISEYR — 280-fold lower, 0.0077 µM
- KQRFHNIRGK — 3.7-fold lower, 0.573 µM
- VSIRVGGQTK — 14-fold higher, 29.9 µM
- VTVYYGPGPGK — 4.5-fold higher, 9.72 µM
- GTRQARRNRK — 1.8-fold higher, 3.8 µM
- VTIKVGGQLK — 2.8-fold higher, 6.06 µM
- KISEYRHYNK — 5.4-fold lower, 0.397 µM
- KVGPGGYPRRK — 2.8-fold lower, 0.775 µM
- VFADLRIVYK — 5.3-fold lower, 0.402 µM
- RVRRRRWRAR — 8.1-fold lower, 0.265 µM
- ALKISQLQK — within 1.5-fold, 3.2 µM
- NIMGRWTGK — 1.5-fold higher, 3.27 µM
- KVSEFRWYRR — 760-fold lower, 0.0028 µM
- AVIFTPIYY — 20-fold higher, 42.3 µM
- KVGPGGYPRR — 8.6-fold lower, 0.25 µM
- GVDGLIYSK — higher, > 17.7 µM
- AACWRSRRK — within 1.5-fold, 3.02 µM
- VSHAQLPAK — 47-fold lower, 0.046 µM
- LLFYSKVRKYR — 310-fold lower, 0.007 µM
- LTISYGRK — 13-fold higher, 27.1 µM
- ALNAAAAAK — 5.1-fold higher, 11 µM
- YLFNQHIKK — 2.3-fold higher, 4.92 µM
- VTVRVGGQLK — 3.9-fold higher, 8.24 µM
- FLYLLNKKNK — 2-fold higher, 4.31 µM

What follows are sequences tested against HLA-DR DRB1*0405 (DR4) (Homo sapiens, UniProt P01903+P01911, A100R/A169T/D86S/F76Y/I96L/K127E/L162R/M171V/N62H/P40V/Q125Y/R42H/S133A/S149N/S66Y/V115G/V209L/W38E) (assay: biochemical). Conditions: read-out: DRB1 *0405.
Type: binding

Point of comparison: KKPLNEILIRCIICQ, IC50 0.347 µM. Against it:
- EFAFKDLFVVYRDS — 11-fold lower, 0.033 µM

What follows are sequences tested against HLA-DR DRB1*0401 (DR4) (Homo sapiens, UniProt P01903+P01911, A100K/A169T/F76Y/I96L/K127E/L162R/M171V/N62H/P40V/Q125Y/R42H/S133A/S149N/S66Y/V115G/V209L/W38E) (assay: biochemical). Conditions: read-out: DRB1 *0401.
Type: binding

Point of comparison: EFAFKDLFVVYRDS, IC50 2.22 µM. Against it:
- KKPLNEILIRCIICQ — 7-fold lower, 0.315 µM
